Results as given in US7354711B2, “Methods for inhibiting immunostimulatory DNA associated responses” (University of Iowa Research Foundation, priority 1997, dated 2008).

Columns and labels:
WEHI 231 cells [1] = test: Inhibition of CpG-ODN 1760 protection against α-sIgM-induced inhibition of [3H] thymidine uptake; assay type: cell-based, mouse; conditions: at nanomolar concentrations; 10 μg/mL α-sIgM, 6 μg/mL ODN 1760
Method: The assay of [^3H] Thymidine incorporation was carried out as follows. WEHI 231 cells (200 μL at 2×10^5/milliliter, in duplicate or triplicate) were incubated in a 96-well plate (Costar, Cambridge Mass.). Additions were made as indicated. After incubating for 16 hours, 0.5 μCi [methyl-^3H] thymidine (2 Ci/millimole, DuPont NEN, Boston Mass.) was added to each well, and the cells were incubated for another 4 hours. Cellular DNA was then captured onto glass fiber filters (Whatman 934AH) using a cell harvester (Brandel, Gaithersberg Md.). The filters were dried, placed into plastic scintillation vials with 10 milliliters of scintillation cocktail (EconoSafe, Research Products International, Mount Prospect Ill.), and counted in a liquid scintillation counter (Beckman LS-3133 T). The ^3H recovered on the filter was expressed as a fraction of the ^3H added.
Referring to experiments summarized in FIG. 1, WEHI 231 cells (ca. 2×10^5 per milliliter) were incubated for 16 hours at 37° C. with 10 μgrams/milliliter α-sIgM, 6 μgrams/milliliter ODN 1760, and the indicated concentration of the compound. After 16 hours, 0.5 μCi [^3H] thymidine was added. After 4 more hours incubation, the cellular DNA was harvested onto glass fiber filters. The dry filters were counted in a liquid scintillation counter.
Each experimental point was the mean of at least duplicate measurements.
Referring to the experiments summarized in FIG. 3, 10 μgrams/milliliter α-sIgM and the indicated concentrations of ODN 1760 and quinacrine were added simultaneously to WEHI 231 cells. Thymidine incorporation was estimated at 16 hours as described for Example 1.
Referring to the experiments summarized in FIG. 4, WEHI 231 cells were incubated with α-sIgM and ODN 1760. At times thereafter 0.1 μM quinacrine was added (data shown in the left three bars). Cells were incubated with 10 μgrams/milliliter (α-sIgM and ODN 1760 (6 μgrams/milliliter, phosphorothioate or a phosphodiester ODN with the same sequence as 1760 (PD ODN) (30 μM at time 0 hours and 8 hours; data represented in right six bars in FIG. 4). [^3H] thymidine incorporation was estimated at 16 hours.
The symbol — indicates no change. Me and Et indicate —CH3 and —CH2CH3 respectively. Aromatic substituents are in the para position except as indicated. The activity is —log10 of the concentration (M) required for half maximal inhibition of CpG-ODN effect on [^3H] thymidine uptake in the presence of α-sIgM.

WEHI 231 cells [2] = test: CpG-ODN-induced IL-6 synthesis (ELISA); assay type: cell-based, mouse; conditions: 30 nM
Method: The assay of IL6 was generally carried out as follows. […] After 24 hours, the IL-6 content of the supernatant was assayed by enzyme-linked immunoassay using two monoclonal antibodies in a sandwich technique as described by the manufacturer, using standards supplied (PharMingen, San Diego Calif.).

7TD1 cells = test: Inhibition of 7TD1 cell growth; assay type: cell-based, mouse
Method: One particularly useful cell line for the assay of immunostimulatory DNA action is the mouse-mouse hybridoma plasma cell line 7TD1(ATTC #CRL 1851), which requires exoqenous IL-6 for growth, and has been used to characterize and assay IL-6 (Papadopolous et al., 1995. J. Clin. Lab. Anal. 9:234-7; Krakauer, 1993. J. Immunoassay 14:267-77).
The 7TD1 cells were grown in RPMI 1640 supplemented with 10% fetal bovine serum (heat inactivated at 65° C., 1 hour), 0.3 grams/Liter L-glutamine, 50 milligrams/Liter gentamycin, 0.05 mM 2-mercaptoethanol, and 10 units per milliliter murine IL-6 in a 37° C. humid atmosphere with 5% CO2. Viable 7TD1 cells were counted in a hemocytometer chamber in duplicate after dilution with 0.4% trypan blue.
The 7TD1 cells were incubated for five days and were washed twice with medium to remove IL-6, and resuspended at 2×10^4 per milliliter in medium. Cell counts were performed and the percent inhibition of growth was computed. The term “anti” refers to 40 nanograms/milliliter neutralizing antibody to IL-6.

human mononuclear cells = test: ODN 1760-induced [3H] thymidine incorporation in human mononuclear cells; assay type: cell-based; conditions: unfractionated human peripheral blood cells, four days
Method: [^3H] thymidine incorporation (18 hour pulse) was then measured. […] Thymidine incorporation for untreated samples was less than 0.05%. Samples from three donors were averaged, and error bars indicate 1 standard deviation.

[3] = tested on: human peripheral blood mononuclear cells (PBMC); test: ODN 1760-induced IL-6 production in human peripheral blood mononuclear cells; assay type: cell-based; conditions: 24 hours
Method: Referring to the experiments summarized in FIG. 9, human peripheral blood mononuclear cells (PBMC) from three donors were incubated with or without ODN 1760 and the indicated concentration of test compound. After 24 hours, the concentration of IL-6 was determined in the supernatant. The figure indicates the percentage of IL-6 in reference to ODN-treated cells. The IL-6 amounts for control sample per donor were as follows: donor 1, 203 picograms/milliliter; donor 2, 71.5 picograms/milliliter; donor 3, 465 picograms/milliliter. IL-6 measured from untreated cells was 0-21 picograms/milliliter. Results from the three donors were averaged, and error bars indicate 1 standard deviation.

[4] = tested on: multi-drug resistance pump; test: Potency with inhibition of the multi-drug resistance pump; assay type: cell-based
[5] = 6 μg/mL ODN 1760 + 1 μg chloroquine (so in the source)
[6] = 6 μg/mL ODN 1760 + 3μ chloroquine (so in the source)

## CCN(CC)CCCC(C)Nc1ccnc2cc(Cl)ccc12 (stereo not drawn) [chloroquine]
WEHI 231 cells [1]
  Inhibition of the CpG-ODN effect (FIG. 1): completely inhibited
WEHI 231 cells [2]
  Reversal of ODN 1760 effect on IL-6 elaboration: completely reversed
7TD1 cells; [5]
  7TD1 cells/μL: 7 cells/μL
  % Growth Inhibition: 98.1%
7TD1 cells; [6]
  7TD1 cells/μL: 10 cells/μL
  % Growth Inhibition: 97.5%
7TD1 cells; 10 μg/mL IL-6 + 1 μM compound
  7TD1 cells/μL: 610 cells/μL
  % Growth Inhibition: 31.2%
7TD1 cells; 10 μg/mL IL-6 + 3 μM compound
  % Growth Inhibition: 38.3%
7TD1 cells; 7TD1 cells, IL-6
  Effect on IL-6-induced growth: little effect
7TD1 cells; 7TD1 cells, ODN 1760
  Effect on growth stimulation by CpG-ODN: blocked
Human mononuclear cells
  Effect on ODN 1760-induced thymidine incorporation (FIG. 8): inhibited
[3]
  Effect on ODN 1760-induced IL-6 production (FIG. 9): inhibited
[4]
  Change of potency on inhibition of the multi-drug resistance pump: magnified

B1: IL-6: murine IL-6 purchased from PharMingen (protein, UniProt P08505 25-211, looked up)
Interleukin-6: FPTSQVRRGDFTEDTTPNRPVYTTSQVGGLITHVLWEIVEMRKELCNGNSDCMNNDDALAENNLKLPEIQRNDGCYQTGYNQEICLLKISSGLLEYHSYLEYMKNNLKDNKKDKARVLQRDTETLIHIFNQEVKDLHKIVLPTPISNALLTDKLESQKEWLRTKTIQFILKSLEEFLKVTLRSTRQT
7TD1 cells; 10 μg/mL IL-6 alone, five days
  7TD1 cells/μL: 887 cells/μL
